Like-named read-outs stand apart in the source and are kept apart here.
Tests used:
[1] = Water solubility / BCS classification of the compound of chemical formula 1; format: physicochemical
[2] = Stability evaluation of the crystalline form of Example 1 (ICH long-term and accelerated storage, HPLC; PXRD); format: physicochemical; conditions: for Content / Total impurities: HPLC
Experimental: The stability of the crystalline solid of the compound of chemical formula 1 prepared by Example 1 was evaluated. According to the ICH guideline, the stability test was conducted under long-term storage (25±2° C., 60±5% RH) and accelerated (40±2° C., 75±5% RH) conditions. The analysis was performed using HPLC to evaluate the change in content and the occurrence of impurities, and the results are shown in Table 1 below.
For a BCS Class 2 substance such as the compound of chemical formula 1, it is very important that the crystalline form remains stable under storage conditions. The more insoluble a substance is, the greater the impact of changes in crystallinity on the quality of the final product is. The change in the crystalline form causes changes in hygroscopicity, stability, dissolution, etc.

[3] = Comparative pharmacokinetic test of the formulation in beagle dog, Experimental Example 8; format: in vivo; conditions: for AUC(0-t) / Cmax / Tmax / half-life / Vd/F / CL/F: beagle, dog, plasma; for Vd/F: read-out: Vz(terminal)/F; for CL/F: CL(inf)/F
Experimental: By applying the conditions of Preparation Example 10, tablets containing 25, 50, and 100 mg of the crystalline solid of chemical formula 1 as a pharmaceutical raw material were manufactured. An experiment was conducted to analyze the pharmacokinetic characteristics of the manufactured tablets after oral administration to a beagle dog.
The compound of chemical formula 1 was administered orally to a beagle dog as a single dose of 25, 50, and 100 mg tablets/head, orally as a single dose of 25 mg liquid/head, and intravenously as a single dose of 2 mg/kg. Blood samples were collected before (0) and 15, 30 min, 1, 1.5, 2, 4, 6, 8, 10, 16, and 24 hr after administration of the test substance to measure the blood concentration of the compound of chemical formula 1.
The preparation for single oral administration in liquid/head was prepared by homogeneously suspending 275 mg of the compound of chemical formula 1 in 220 ml of pre-prepared 2.5% HP-PCD (sterile water solution) to obtain 1.25 mg/ml. In addition, the preparation for single intravenous administration was prepared by dissolving 300 mg of the compound of chemical formula 1 in 150 ml of pre-prepared 10% HP-PCD (sterile water solution) to obtain 2 mg/ml.

[4] = accelerated 40±2°C, 75±5% RH, 1 months
[5] = accelerated 40±2°C, 75±5% RH, 3 months
[6] = accelerated 40±2°C, 75±5% RH, 6 months
[7] = accelerated 40±2°C, 75±5% RH, Initial
[8] = long-term storage 25±2°C, 60±5% RH, 1 months
[9] = long-term storage 25±2°C, 60±5% RH, 3 months
[10] = long-term storage 25±2°C, 60±5% RH, 6 months
[11] = long-term storage 25±2°C, 60±5% RH, 12 months
[12] = long-term storage 25±2°C, 60±5% RH, Initial
[13] = iv, 2 mg/kg, 2 mg/kg solution (iv), 10% HP-PCD, single dose, beagle dog plasma
[14] = po, 25 mg, 25 mg solution (po), per head, suspended in 2.5% HP-PCD, single dose, beagle dog plasma
[15] = po, 25 mg, 25 mg tablet (po), per head, single dose, beagle dog plasma
[16] = po, 50 mg, 50 mg tablet (po), per head, single dose, beagle dog plasma
[17] = po, 100 mg, 100 mg tablet (po), per head, single dose, beagle dog plasma

Q: Which results are given for `C[C@@H]1CN(c2ccc(S(C)(=O)=O)cc2F)CCN1c1nccc(C(=O)NC2C3CC4CC2CC(O)(C4)C3)n1` (stereo partly drawn) [chemical formula 1, 2-((R)-4-(2-fluoro-4-(methylsulfonyl)phenyl)-2-methylpiperazin-1-yl)-N-((1R,2s,3S,5S,7S)-5-hydroxyadamantan-2-yl)pyrimidine-4-carboxamide]?
A: Biopharmaceutics classification system (BCS) class [1]: Class 2 (high permeability, low solubility); solubility according to pH [1]: does not have the characteristic of improving solubility according to pH; solubility ([1]; water): ≤ 1 µg/mL; Content [2, 4]: 99.6%; Total impurities [2, 4]: 0.43%; Content [2, 5]: 100.8%; Total impurities [2, 5]: 0.44%; Content [2, 6]: 100.0%; Total impurities [2, 6]: 0.42%; Content [2, 7]: 99.9%; Total impurities [2, 7]: 0.34%; Content [2, 8]: 99.5%; Total impurities [2, 8]: 0.43%; Content [2, 9]: 99.3%; Total impurities [2, 9]: 0.41%; Content [2, 10]: 100.5%; Total impurities [2, 10]: 0.43%; Content [2, 11]: 99.7%; Total impurities [2, 11]: 0.45%; Content [2, 12]: 99.9%; Total impurities [2, 12]: 0.34%; crystalline form (PXRD) of stored stability samples ([2]; stored 3, 6 and 12 months (12 months long-term only)): the crystalline form did not change; CL(inf)/F ([3]; 2 mg/kg solution (iv), 10% HP-PCD, single dose, beagle dog plasma): 5.5 mL/min/kg; BA ([3]; 25 mg solution (po), per head, single dose, beagle dog): 45.82 % F; BA ([3]; 25 mg tablet (po), per head, single dose, beagle dog): 44.31 % F; average absorption (AUClast) of the tablet administration group relative to the liquid administration group ([3]; 25 mg/head po, beagle dog): 96.7%; BA ([3]; 50 mg tablet (po), per head, single dose, beagle dog): 35.37 % F; BA ([3]; 100 mg tablet (po), per head, single dose, beagle dog): 25.40 % F; AUC(0-t) [3, 13]: 6180 ng·h/mL; Cmax [3, 13]: 1160 ng/mL; Tmax [3, 13]: 0.25 h; half-life [3, 13]: 4.07 h; AUC(0-t) [3, 14]: 3370 ng·h/mL; Cmax [3, 14]: 393 ng/mL; Tmax [3, 14]: 1.5 h; half-life [3, 14]: 6.32 h; Vd/F [3, 14]: 58.5 L; AUC(0-t) [3, 15]: 3260 ng·h/mL; Cmax [3, 15]: 420 ng/mL; Tmax [3, 15]: 2 h; half-life [3, 15]: 4.42 h; Vd/F [3, 15]: 49.4 L; CL/F [3, 14]: 6.9 L/h; CL/F [3, 15]: 8.04 L/h; AUC(0-t) [3, 16]: 5210 ng·h/mL; Cmax [3, 16]: 666 ng/mL; Tmax [3, 16]: 2 h; half-life [3, 16]: 5.29 h; Vd/F [3, 16]: 79.3 L; CL/F [3, 16]: 10.2 L/h; AUC(0-t) [3, 17]: 7480 ng·h/mL; Cmax [3, 17]: 899 ng/mL; Tmax [3, 17]: 1.75 h; half-life [3, 17]: 6.89 h; Vd/F [3, 17]: 119 L; CL/F [3, 17]: 12.8 L/h
